Tests used:
[1] = test system: IL-1β-stimulated GAG release, bovine chondrocyte pellets / ARC tissues; assay: chondrocyte pellet culture model: GAG degradation; type: cell-based; settings: for inhibition of GAG degradation: ARC tissues stimulated with IL-1β; for GAG Release: Pellet Assay
How it was run: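 Bovine chondrocyte pellets (calf articular cartilage, 2–3 weeks culture) or ARC tissue punches pretreated with compounds for 1 h at 37° C, then 3–5 days with or without 10 ng/ml IL-1β; DMSO ≤1%. Medium GAG measured by dimethylmethylene blue absorbance at 525 nm against chondroitin sulfate; reported as μg/ml or % total GAG released.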

[2] = test system: injured cartilage explants, GAG release; assay: drop tower design model: GAG release; type: cell-based, bovine; settings: injured cartilage explants, inflammatory conditions
Excerpt: The device comprises a vertical rail that guides a sliding weight from 0.1 kg to 3 kg directly onto a force transducer which is situated at the bottom of the device. A sphere-shaped 2 mm indenter resting on a specimen is located at the bottom of the vertical rail. The indenter is held by a stop screw. The specimen is rigidly attached to a tissue holder underneath the indenter, to avoid side movements, the specimen is rigidly attached to the tissue holder. In this manner, the force transducer transduces a force indirectly onto the specimen. Adjusting the weight of a mass and height from which the mass drops varies the magnitude of the intended impact. For example, a weight mass (e.g., […]) held by a weight holder can be released from a height of e.g., 36 cm and dropped onto the force transducer.
Samples for compound evaluation were tested using either of two different methods to induce inflammatory conditions. One method utilized media conditioned from peripheral blood mononuclear cells (PBMCs) stimulated with LPS (“+LPS”) or non-inflammatory media without LPS (“−LPS”). Another method utilized the absence or presence of a cocktail of cytokines.
In the first method, bovine or human PBMCs were freshly prepared using Ficoll gradient by Lampire Biological Laboratories, Inc. PBMCs in RPMI w/10% FCS at delivery were spun down at 1500 rpm for twenty minutes and the cell pellet was washed twice with 1×PBS to wash off the residual Ficoll. The cells were then resuspended at a density of 1×10^6/ml in RPMI supplemented with 10% FCS, 1× Antibiotics-Antimycotics. The suspension was divided into two aliquots. One aliquot was stimulated with 10 μg/ml of LPS and the other was not stimulated. Both aliquots were then incubated at 37° C., 5% CO2 for twenty-four to seventy-two hours. The conditioned media with or without LPS stimulation are collected, aliquoted, and stored in −80° C. for a maximum of three months. Each conditioned medium was assessed for levels of pro-inflammatory cytokines to ensure their secretion from PBMC. A representative cytokine, IL-6, was assayed by ELISA using a Human IL-6 Quantikine kit and it was shown that the LPS-stimulated medium had at least 10 ng/ml of IL-6, while IL-6 was undetectable in the unstimulated medium.
In the second method, the explants were cultured at 37° C., 5% CO2 either in stimulated or non-stimulated conditioned medium as described above or in defined medium containing DMEM supplemented with 1% FCS, 1× insulin-transferrin-sodium selenite media supplement and Antibiotics-Antimycotics in the presence or absence of a cocktail of cytokines containing 10 ng/ml of IL-1β, 100 ng/ml of TNFα and 5 ng/ml of IFN-γ. The compounds were solubilized in H2O, Ethanol or DMSO (10^−2 M) according to suppliers' instructions and further diluted with either conditioned medium stimulated with or without LPS to the required concentrations. DMSO concentrations in the culture media never exceeded 1%. This concentration of DMSO has no effect on cartilage proteoglycan metabolism in response to cytokines. The injured and noninjured cartilage explants were treated with compound-containing medium for three to five days. The specimens were first treated with compounds at desired concentrations at 37° C. for one hour and then incubated for three to five days in the absence or presence of the cocktail of cytokines. At the end of the incubation, media and cartilage samples were harvested and frozen for further analysis.
Glycosaminoglycan (GAG) levels in the culture media or cartilage were determined by measuring the amount of polyanionic material reacting with 1,9-dimethylmethylene blue (DME) as detected by absorbance at 525 nm, using shark chondroitin sulfate as a standard. The DME blue dye-binding solution was prepared by dissolving 16 mg of DME blue in a solution containing 0.304% glycine, 0.23% NaCl, 9.5 mM HCl, pH=3.0 with A525 equaling 0.31. […]

Compound | lowest concentration inhibiting proteoglycan degradation ([1]; 10 ng/ml IL-1β, five days) [µM] | GAG, inhibition of degradation/release [2] | inhibition of GAG degradation [1] | GAG, inhibition of degradation/release ([2]; listed as JNK 7583979 (RWJ 351958)) | GAG Release [1]
CC(=O)Oc1cccc2c1C(=O)c1c(OC(C)=O)cc(C(=O)O)cc1C2=O [Diacerein, reference compound] | ≤ 0.054 | completely inhibited | – | – | –
OCCC#Cc1nc(-c2ccc(F)cc2)c(-c2ccncc2)n1CCCc1ccccc1 [JNJ 3026582 (RWJ 67657), 4-[4-(4-fluorophenyl)-1-(3-phenylpropyl)-5-(4-pyridinyl)-1H-imidazol-2-yl]-3-butyn-1-ol] | – | little efficacy | significant effect | – | –
C[C@H](Nc1nccc(-c2c(-c3ccc(F)cc3)nc3nc(N)ccn23)n1)c1ccccc1 [JNJ 7583979 (RWJ 351958)] | – | little efficacy | significant effect | little | –
CC(=O)N1CCN(c2c(-c3ccncc3)c(-c3ccc(F)cc3)c(C#N)n2C)CC1 [JNJ 17089540 (RWJ 669307)] | – | – | little effect | – | No effect
CC(C(=O)O)c1ccc(C(=O)c2cccs2)cc1 (stereo not shown) [Suprofen, reference compound] | – | – | – | – | No effect

Source: patent publication US8986696B2, “Trans-capsular administration of p38 map kinase inhibitors into orthopedic joints” (DePuy Mitek, Inc., priority 2007, dated 2015)
